Test results as given in patent US10188666B2, “Dendrogenin A and antineoplastic agents for the treatment of chemosensitive or chemoresistant tumors” (priority 2013, dated 2019).
Read-outs that look alike come from different tables or passages of the source.

Key:
MV4-11 cells = assay: MTT cell viability assay, MV4-11 cells; format: cell-based; conditions: for sensitivity of MV4-11 cells (cell viability, in words): single agent
Method: (§1) Briefly, effect of drugs alone and in combinations were determined for a 3-5 log scale of concentrations of drugs and with a constant ratio between the two drugs used for co-treatment. Cells were seeded in 96-well plates (50 000 cell/well). Cells were treated just after seeding, for 48 hours. Cell viability was determined with MTT assay. Cells were centrifuged 5 minutes at 1200 rpm, medium removed, 100 μl of MTT solution (1 mg/ml in PBS) added, incubated for 2 hours at 37° C., centrifuged, MTT solution removed and DMSO (100 μl) added to dissolve purple formazan formed by living cells. Absorbance of the solution was determined at 540 nm.
(§2) HL60, KG1, KG1a and MV4-11 cells were seeded in 96-well plates (50 000 cells/well). Cells were treated just after seeding with increasing doses of daunorubicin, for 48 hours. Cell viability was determined with MTT assay as follows: cells were centrifuged 5 minutes at 1200 rpm, medium removed, 100 μl of MTT solution (1 mg/ml in PBS) added, incubated for 2 hours at 37° C., centrifuged, MTT solution removed and DMSO (100 μl) added to dissolve purple formazan formed by living cells. Absorbance of the solution was determined at 540 nm.
(§3) HL60, KG1, KG1a and MV4-11 cells were seeded in 96-well plates (50 000 cells/well). Cells were treated just after seeding with increasing doses of cytarabine, for 48 hours.
(§4) HL60, KG1, KG1a and MV4-11 cells were seeded in 96-well plates (50 000 cells/well).
(§5) HL60, KG1, KG1a and MV4-11 cells were seeded in 96-well plates (50 000 cells/well). Cells were treated just after seeding with increasing doses of cisplatin, for 48 hours.
(§6) HL60, KG1, KG1a and MV4-11 cells were seeded in 96-well plates (50 000 cells/well). Cells were treated just after seeding with increasing doses of Dendrogenin A, for 48 hours.
(§7) MV4-11 cells were seeded in 96-well plates (50 000 cells/well).
as §7

HL60 cells = assay: MTT cell viability assay, HL60 cells; format: cell-based
Method: as §1, §2, §3, §4, §5, §6
(§8) HL60 cells were seeded in 96-well plates (50 000 cells/well).
HL60 cells were seeded in 96-well plates (50 000 cells/well). Cells were treated just after seeding with increasing doses of Dendrogenin A and Cisplatin, for 48 hours.
as §8
HL60 cells were seeded in 96-well plates (50 000 cells/well). Cells were treated just after seeding with increasing doses of Dendrogenin A and arsenic trioxide, for 48 hours.
as §8

KG1 cells = assay: MTT cell viability assay, KG1 cells; format: cell-based; conditions: 48 hours
Method: as §1, §2, §3, §4, §5, §6
(§9) KG1 cells were seeded in 96-well plates (50 000 cells/well).
as §9, §9
KG1 cells were seeded in 96-well plates (50 000 cells/well). Cells were treated just after seeding with increasing doses of Dendrogenin A and Cisplatin, for 48 hours.
as §9
KG1 cells were seeded in 96-well plates (50 000 cells/well). Cells were treated just after seeding with increasing doses of Dendrogenin A and arsenic trioxide, for 48 hours.
as §9

KG1a cells = assay: MTT cell viability assay, KG1a cells; format: cell-based; conditions: for sensitivity of KG1a cells compared to KG1 cells (cell viability, in words): single agent
Method: as §1, §2, §3, §4, §5, §6
(§10) KG1a cells were seeded in 96-well plates (50 000 cells/well).
as §10
KG1a cells were seeded in 96-well plates (50 000 cells/well). […]

[1] = tested on: chemoresistant cancer cell line KG1a; assay: Cell death induction, Trypan blue counting, KG1a cells; format: cell-based; conditions: 48 hours; for cell death induction by the antineoplastic agent alone: KG1a, Daunorubicin 0.5 μM or cytarabine 1 μM
Method: In a 6-microwell plate was seeded 0.5·10^6 cells of KG1a cell line. The same day, Solvant vehicule or different concentrations of Dendrogenin A (final concentrations: 5 and 10 μM) alone or in combination with Daunorubicin (final concentration: 0.5 μM) or cytarabine (final concentration: 1 μM) were added into the well. After 48 hours of incubation, the cells suspensions were centrifuged and cell pellets were resuspended in the Trypan blue solution (0.25% (w/v) in PBS) and counted in a Malassez cell under a light microscope.

[2] = tested on: drug sensitive cancer cell line KG1; assay: Cytotoxic activity, Trypan blue counting, KG1 cells; conditions: for cytotoxic activity of the antineoplastic agent alone: KG1, Daunorubicin 0.05-0.5 μM or cytarabine 0.1-1 μM, 48 hours
Method: In a 6-microwell plate was seeded 0.5.10^6 cells of KG1 cell line. […] Then, Daunorubicin (final concentration: 0.05, 0.1, 0.25 and 0.5 μM) or cytarabine (final concentration: 0.1, 0.2, 0.5 and 1 μM) were added to […]. After the cells were cultured for additional 48 hours, culture suspensions were centrifuged and cell pellets were resuspended in the Trypan blue solution (0.25% (w/v) in PBS) and counted in a Malassez cell under a light microscope.

[3] = target: cholesterol epoxide hydrolase (Homo sapiens, UniProt Q15125); conditions: de Medina et al., Nature Communications, 2013; cited from earlier work
Sequence of cholesterol epoxide hydrolase (Q15125 whole entry): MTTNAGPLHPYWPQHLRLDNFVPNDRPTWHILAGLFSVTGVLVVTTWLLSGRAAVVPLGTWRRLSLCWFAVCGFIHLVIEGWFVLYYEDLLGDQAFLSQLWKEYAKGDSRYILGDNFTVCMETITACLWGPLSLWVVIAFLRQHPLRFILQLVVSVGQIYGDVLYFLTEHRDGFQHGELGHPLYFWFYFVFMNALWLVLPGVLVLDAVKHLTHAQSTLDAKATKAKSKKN

AML patient cells = assay: Cell death of AML patient samples, Annexin V-FitC/7-AAD flow cytometry; format: cell-based; conditions: Dendrogenin A 5 μM alone, 48 hours
Method: In a 6-microwell plate were seeded 0.5.10^6 patient cells. The same day, Solvant vehicle or different concentrations of Dendrogenin A (final concentrations: 5 μM) alone or in combination with Daunorubicin (final concentration: 10 nM) were added into the well. After 48 hours of incubation, the cells suspensions were centrifuged and washed with PBS and cell pellets were resuspended in a labeling solution containing Annexin V-FitC and 7-AAD as described in the kit protocol (Annexin V-FitC/7-AAD staining kit, Roche Applied Science). Cells were then incubated for 15 minutes at room temperature in the dark and analyzed by Facs Flow cytometry.

[4] = Homo sapiens, KG-1, KG1 cell line
[5] = Homo sapiens, KG-1a, KG1a cell line, 48 hours, MTT, read-out: IC 50

Compound	IC50 (MV4-11 cells; Homo sapiens, MV4-11, 48 h)	sensitivity of MV4-11 cells (cell viability, in words) (MV4-11 cells; 48 hours, MTT)	IC50 (HL60 cells; Homo sapiens, HL-60, 48 h)	sensitivity of HL60 cells (cell viability, in words) (HL60 cells; single agent, 48 hours, MTT)	IC50 (KG1 cells; [4])	sensitivity of KG1a cells compared to KG1 cells (cell viability, in words) (KG1a cells; 48 hours, MTT)	sensitivity of HL60 cells (cell viability, in words) (HL60 cells)	cell death induction by the antineoplastic agent alone [1]	IC50 (KG1a cells; [5])	cytotoxic activity of the antineoplastic agent alone [2]	also measured
O=c1[nH]cc(F)c(=O)[nH]1 [5-Fluorouracil]	2160 µM	more resistant to 5-FU compared to Daunorubicin or Cytarabine	2450 µM	more resistant to 5-FU compared to Daunorubicin or Cytarabine	756 µM	resistant					IC50 (KG1a cells; Homo sapiens, KG-1a, 48 h, heading: IC 50, KG1a cell line, 48 hours, MTT, read-out: IC 50): 3.99 µM
N.N.[Cl][Pt][Cl] [Cisplatin]		more resistant to Cisplatin compared to Daunorubicin or Cytarabine				resistant	as sensible to Cisplatin as to Daunorubicin and Cytarabine				IC50 (MV4-11 cells; MV4-11 cell line, 48 hours, MTT, read-out: IC 50): 7.2 µM; IC50 (HL60 cells; read-out: IC 50): 3.29 µM; IC50 (KG1 cells; KG1 cell line): 3.29 µM; IC50 (KG1a cells; KG1a cell line, 48 hours, MTT, read-out: IC 50): 9.59 µM
Nc1ccn([C@@H]2O[C@H](CO)[C@@H](O)[C@@H]2O)c(=O)n1 [Cytarabine]	0.18 µM	more sensitive than KG1 cells	0.16 µM	more sensitive than KG1 cells	0.34 µM	resistant		resistant	1.53 µM	sensitive	
COc1cccc2c1C(=O)c1c(O)c3c(c(O)c1C2=O)C[C@@](O)(C(C)=O)C[C@@H]3O[C@H]1C[C@H](N)[C@H](O)[C@H](C)O1 [Daunorubicin]	0.067 µM	as sensitive as KG1 cells	0.062 µM		0.064 µM	resistant	as sensitive as KG1 cells	resistant		sensitive	IC50 (KG1a cells; Homo sapiens, KG-1a, 48 h): 1.08 µM
CC(C)CCC[C@@H](C)[C@H]1CC[C@H]2[C@@H]3C[C@@H](NCCc4cnc[nH]4)[C@@]4(O)C[C@@H](O)CC[C@]4(C)[C@H]3CC[C@]12C [Dendrogenin A, 5α-hydroxy-6β-[2-(1H-imidazol-4-yl)ethylamino]cholestan-3β-ol]		as sensitive as KG1 or KG1a cells		as sensitive as KG1 or KG1a cells	8.86 µM	as sensitive as KG1 cells			13.2 µM		effect on resistance of KG1a cells to Daunorubicin ([1]; Dendrogenin A 5 and 10 μM with Daunorubicin 0.5 μM): able to abolish this resistance; effect on resistance of KG1a cells to Cytarabine ([1]; Dendrogenin A 5 and 10 μM with cytarabine 1 μM): able to abolish this resistance; IC50 (MV4-11 cells; Homo sapiens, MV4-11 cell line, 48 hours, MTT, read-out: IC 50): 7.27 µM; IC50 (HL60 cells; Homo sapiens, HL-60, HL60 cell line, 48 hours, MTT, read-out: IC 50): 8.06 µM; inhibition of cholesterol epoxide hydrolase [3]: selective inhibitor; cell death rate of tumor cells resistant to Daunorubicin (AML patient cells): high or moderate cell death rate; effect on sensibility of KG1 cells to Daunorubicin ([2]; Dendrogenin A 2.5 μM for 24 hours, then Daunorubicin 0.05-0.5 μM for 48 hours): able to increase this sensibility; effect on sensibility of KG1 cells to Cytarabine ([2]; Dendrogenin A 2.5 μM for 24 hours, then cytarabine 0.1-1 μM for 48 hours): able to increase this sensibility
